Measured values published in US20030055101A1, “Use of statins to inhibit formation of osteoclasts” (priority 2001, published 2003).
Counter-ions that a name gives are not always drawn.

What was measured:
[1] = normal and ovariectomized (OVX) rats; cited from earlier work
[2] = tested on: osteoblast-osteoclast cocultures; details: 10 μM; cited from earlier work
RAW 264.7 cells = test: RANKL-induced osteoclastogenesis in RAW 264.7 cells (TRAP staining); type: cell-based
Protocol: Raw cells (2000/well) were stimulated with RANKL (50 ng/mL)±atorvastatin and S,S-enantiomer of atorvastatin for 5 days and TRAP staining was performed at the end of Day 5 and the data is expressed as % inhibition of number of TRAP-positive cells compared to control.
RAW cells were plated at a density of 2000 cells/well in a 48-well plate and cultured overnight in alpha-MEM medium containing antibiotics. Cells were treated with either RANKL (50 ng/mL)±atorvastatin or the S,S-enantiomer of atorvastatin (10, 1, and 0.01 μM) for 5 days and stained for TRAP enzyme. Purple stained cells with three or more nuclei were counted under the microscope and represented as % inhibition of osteoclastogenesis compared to control cells.
RAW cells were cultured in α-MEM containing 10% FBS, 100 IU penicillin, 100 μg/mL of streptomycin. Cells were plated at a density of 2000 cells/well in a 48-well plate. After overnight incubation, the cells were stimulated with RANKL (50 ng/mL)±atorvastatin, S,S-enantiomer of atorvastatin or OPG for 5 days and stained for TRAP at the end of Day 5.
(§1) After initial wash with 1×PBS, the cells were fixed for 30 seconds using acetone based fixing solution containing acetone, citric acid and 37% formaldehyde. After washing twice with distilled water that was prewarmed to 37° C., the cells were incubated in acetate buffer containing naphthol AS-B1 and Fast Garnet GBC solution for 45 minutes at 37° C. TRAP-positive cells are typically brown in color when viewed under the microscope. The total number of TRAP-positive cells with 3 or more nuclei in each well were counted. TRAP activity is a phenotypic marker of mature osteoclasts.

[3] = tested on: primary murine bone marrow cell cultures; test: RANKL-induced osteoclastogenesis in bone marrow cell cultures (TRAP staining); type: cell-based, mouse; details: for number of TRAP-positive cells formed: added 2 days post RANKL stimulation (5 days after isolation)
Protocol: Bone marrow cells were cultured with 100 ng/mL of M-CSF for 3 days. The cells were further cultured for 5 more days with either atorvastatin, its S,S-enantiomer or osteoprotegerin (OPG) in the presence of RANKL and M-CSF. Cells were then fixed and stained for TRAP. […] The data shown are mean ±SD (n=4 wells/treatment).
Bone marrow cells treated with M-CSF for 3 days were stimulated with RANKL as well as atorvastatin (0.01 nM, […], and 1 μM), its S,S-enantiomer or OPG. In some experiments atorvastatin was added 2 days post RANKL stimulation (5 days after isolation). On Day 8 postisolation, cells were fixed and stained for TRAP. TRAP-positive multinucleated cells were counted and represented. The data shown are mean of ±SD (n=4 wells/treatment).
Bone marrow cells were cultured in the presence of 100 ng/mL of recombinant murine M-CSF for 3 days after isolation. The cells were then stimulated with murine RANKL (100 ng/mL) in the presence of various doses of atorvastatin (0.01 nM, 1 nM, and 1 μM), S,S-enantiomer of atorvastatin, or osteoprotegerin (OPG) and further cultured for 5 more days and stained for TRAP activity (see FIG. 1).
Osteoclastogenesis involves a series of events which include differentiation, proliferation, activation, and fusion to form multinucleated cells that are capable of resorbing bone. To examine the stage at which atorvastatin inhibits osteoclastogenesis, atorvastatin was added at various times to mouse bone marrow cells in the presence of M-CSF and RANKL.
Briefly, after removing the femur aseptically, the adherent soft tissue was separated from the bone. Using a syringe and a needle, the marrow was flushed using alpha minimum essential medium (α-MEM). Osteoclasts were obtained by culturing bone marrow cells (0.15×10^6 cells/well) in α-MEM containing 10% fetal bovine serum (FBS), 100 IU penicillin, 100 μg/mL of streptomycin and 100 ng/mL of recombinant murine M-CSF for 3 days in 48-well plates. The osteoclasts thus obtained were further cultured with RANKL±atorvastatin, S,S-enantiomer of atorvastatin or osteoprotegerin (OPG), for 5 days. […] In some experiments, the compounds were added on Day 5 postisolation.
as §1, with “After” for “After initial wash with 1×PBS, the cells were fixed for 30 seconds using acetone based fixing solution containing acetone, citric acid and 37% formaldehyde. After”

[4] = tested on: osteoclasts in ovariectomized rats; test: Osteoclast numbers in ovariectomized rats (tibia histomorphometry); type: in vivo, rat; details: for osteoclast numbers: 5 weeks
Protocol: Rats were ovariectomized according to the standard protocol and were administered orally with various doses of atorvastatin (2.5, 5, and 10 mg/kg body weight) for 5 weeks. Tibiae were analyzed for osteoclast number by histomorphometry. Ethinyl estradiol (EE) (0.4 mg/kg), a known bone protective agent, was used as a positive control.
Ovariectomy-induced bone loss in rats is an established model of osteoporosis, wherein estrogen insufficiency leads to increased osteoclastogenesis, possibly due to enhanced cytokine production. To test whether statins decrease bone resorption in vivo, ovariectomized rats were given orally various doses of atorvastatin (2.5, 5, or 10 mg/kg body weight) for 5 weeks. At the end of the study, the animals were sacrificed, and histomorphometric analysis was performed on tibia obtained from the animals.
The rats were ovariectomized according to the standard protocol. Briefly, after anesthesia the rats were cleaned with antiseptic solution. A small incision was made on the back of the animal, and the ovaries were located carefully underneath the fat tissue. After proper clamping, ovaries were removed with a scalpel blade. Also, the fallopian tube with the uterine horn was sealed by electrocautery. Later, the skin incision was closed using wound clips. After recovery from the surgery, animals were randomized into 6 groups of 8 animals each (sham operated, OVX, OVX+ atorvastatin 2.5, 5, 10 mg/kg body weight and OVX+ ethinyl estradiol) and dosed with various concentrations of atorvastatin and vehicle control every day for a period of 5 weeks.
Histomorphometric analysis was performed using decalcified sections of the proximal tibia for cancellous bone and undecalcified sections for cortical bone. Briefly, tibiae were decalcified using 10% ethylene diaminetetraacetic acid (EDTA), followed by […] in ascending concentrations of ethanol and embedded in glycol methacrylate (GMA) resin. The specimens were sectioned at 5 to 10 μm and stained with TRAP and counter stained with methyl green for determination of cellular parameters. Bone histomorphometry was performed using an OsteoMeasure image analysis system connected via a video system to a suitable light microscope.

Molecule: CC[C@H](C)C(=O)O[C@H]1C[C@@H](C)C=C2C=C[C@H](C)[C@H](CC[C@@H]3C[C@@H](O)CC(=O)O3)[C@H]21 [lovastatin]
- increase in total bone area compared to BMP-2 or b-FGF [1]: greater dose-dependent increase
- tartrate-resistant acid phosphatase (TRAP) activity [2]: inhibits

Molecule: (3S,5S)-7-[2-(4-fluorophenyl)-5-isopropyl-3-phenyl-4-phenylcarbamoyl-pyrrol-1-yl]-3,5-dihydroxy-heptanoic acid calcium salt (2:1) [S,S-enantiomer of atorvastatin]
- % inhibition of RANKL-induced multinucleated cell formation, compared with atorvastatin (RAW 264.7 cells; 10, 1, and 0.01 μM, 5 days, RANKL 50 ng/mL): significantly less % inhibition
- number of TRAP-positive cells formed [3]: no differences were observed

Molecule: CC(C)c1c(C(=O)Nc2ccccc2)c(-c2ccccc2)c(-c2ccc(F)cc2)n1CC[C@@H](O)C[C@@H](O)CC(=O)O [atorvastatin, [R-(R*,R*)]-2-(4-fluorophenyl)-β,δ-dihydroxy-5-(1-methylethyl)-3-phenyl-4-[(phenylamino)carbonyl]-1H-pyrrole-1-heptanoic acid calcium salt (2:1) trihydrate]
- number of TRAP-positive, multinucleated cells (RAW 264.7 cells; 0.01 nM to 1 μM): significantly reduced
- inhibition at 0.01 µM (RAW 264.7 cells; Mus musculus, RAW264.7, 120 h, 0.01 micromolar, 5 days, RANKL 50 ng/mL, read-out: % inhibition of RANKL-induced multinucleated cell formation): ~80%
- IC50 (RAW 264.7 cells; Mus musculus, RAW264.7, RAW cells, read-out: IC50, number of TRAP-positive, multinucleated cells): 170 nM
- osteoclast numbers ([4]; 5 mg/kg orally, ovariectomized rats): significantly decreased
- osteoclast numbers ([4]; 10 mg/kg orally, ovariectomized rats): significantly decreased
- decrease of osteoclast formation compared with ethinyl estradiol ([4]; both 5 and 10 mg/kg doses, ethinyl estradiol positive control): more effective
- number of osteoclasts formed ([4]; daily oral 2.5-10 mg/kg body weight, 5-week period, ovariectomized rats): significantly decreased
- number of TRAP-positive, multinucleated cells ([3]; 0.01 nM to 1 μM): significantly reduced
- IC50 ([3]; Mus musculus, primary murine bone marrow cell cultures, read-out: IC50, number of TRAP-positive, multinucleated cells): 0.43 nM
- number of TRAP-positive cells formed [3]: able to block
- effect when added on Day 5 compared with Day 3 postisolation ([3]; time course): much more pronounced

B1: osteoprotegerin (protein, UniProt O00300 22-401, looked up)
Tumor necrosis factor …: ETFPPKYLHYDEETSHQLLCDKCPPGTYLKQHCTAKWKTVCAPCPDHYYTDSWHTSDECLYCSPVCKELQYVKQECNRTHNRVCECKEGRYLEIEFCLKHRSCPPGFGVVQAGTPERNTVCKRCPDGFFSNETSSKAPCRKHTNCSVFGLLLTQKGNATHDNICSGNSESTQKCGIDVTLCEEAFFRFAVPTKFTPNWLSVLVDNLPGTKVNAESVERIKRQHSSQEQTFQLLKLWKHQNKDQDIVKKIIQDIDLCENSVQRHIGHANLTFEQLRSLMESLPGKKVGAEDIEKTIKACKPSDQILKLLSLWRIKNGDQDTLKGLMHALKHSKTYHFPKTVTQSLKKTIRFLHSFTMYKLYQKLFLEMIGNQVQSVKISCL
notes: soluble decoy receptor for RANKL
- number of TRAP-positive multinucleated cells formed by RANKL ([3]; 50 ng/mL added simultaneously with RANKL): completely inhibited
